Measured values published in patent US20250295762A1, “COMPOSITE BIOACTIVE COMPOSITIONS AND APPLICATIONS THEREOF” (THE UNIVERSITY OF NORTH CAROLINA AT CHAPEL HILL, priority 2022, published 2025).
Values after ≈ are worked out from the molar mass of the structure shown.

Test system: 3T3 fibroblasts
Assay: Cell viability by MTT assay in fibroblasts
Format: cell-based
Conditions: 24 h; for IC50: Fibroblast, read-out: 50% Inhibitory Concentration (IC50)
Source text: All cell lines (RAW 264.7 murine macrophages, DC2.4 dendritic cells, and 3T3 fibroblasts; ATCC, Manassas, VA) were maintained according to ATCC guidelines. B3Z T cells were obtained from Dr. Nilabh Shastri (Johns Hopkins) and maintained and used as previously outlined. See, Broaders, K. E.; Cohen, J. A.; Beaudette, T. T.; Bachelder, E. M.; Frechet, J. M., Acetalated dextran is a chemically and biologically tunable material for particulate immunotherapy. Proc Natl Acad Sci USA 2009, 106 (14), 5497-502. Cell viability was determined with an MTT assay, as previously described. See, Chen, N.; Collier, M. A.; Gallovic, M. D.; Collins, G. C.; Sanchez, C. C.; Fernandes, E. Q.; Bachelder, E. M.; Ainslie, K. M., Degradation of acetalated dextran can be broadly tuned based on cyclic acetal coverage and molecular weight. Int J Pharm 2016, 512 (1), 147-157.

SMILES | IC50 [µg/mL] | 50% Inhibitory Concentration (IC50) [µg/mL]
Cc1ncc[nH]1 [2-methylimidazole] | ~1000 (≈ 12.2 mM) | –
NCCC(=O)N[C@@H](Cc1cnc[nH]1)C(=O)O [L-carnosine] | > 1000 | –
CC(=O)[O-].CC(=O)[O-].[Zn+2] [zinc acetate dihydrate] | – | 16.0 ± 1.0
O.O.O.O.O.O.O=[N+]([O-])[O-].O=[N+]([O-])[O-].[Zn+2] [zinc nitrate hexahydrate] | – | 25.8 ± 2.1
